From patent US5880134A, “Method for using ergoline compounds to effect physiological and pathological functions at the 5-HT7 receptor” (Eli Lilly and Company, priority 1997, dated 1999)

Columns and labels:
[1] = target: T1, 5-HT7 receptor in the dog coronary artery (Canis lupus familiaris, UniProt A0A8I3S709); assay: 5-HT-induced relaxation of endothelium-denuded canine coronary artery rings precontracted with PGF2α (Schild / dissociation constant analysis); assay type: cell-based; settings: for pEC50 values between vehicle and compound-treated tissues: 1 μM, p<0.05, Student's t-test; for blockade of 5-HT-induced relaxation: compounds III and V 1 μM, compound IV 10-100 nM, 1 hr incubation; for relaxant activity in canine coronary artery: agonist; for slope of the Schild regression: Schild plot; for slope: Table 2, Schild regression
T1 construct: The left anterior descending and circumflex coronary arteries were dissected from the hearts; from tissue; host or cells: dog left anterior descending and circumflex coronary artery rings (mongrel dogs), endothelium removed
Method: (§1) Hearts were obtained from mongrel dogs anesthetized with sodium pentobarbital (30 mg/kg, i.v.) and placed in oxygenated modified Krebs' solution of the following composition (millimolar): NaCl, 118; KCl, 4.6; CaCl2, 1.6; KH2 PO4, 1.2; MgSO4 1.2, glucose, 10; NaHCO3 24.8 (pH 7.4). The left anterior descending and circumflex coronary arteries were dissected from the hearts, cleaned of fat and adhering tissue and cut into rings (approximately 2-3 mm outer diameter and 4-5 mm in length). The intimal surface of the rings was gently rubbed with a pair of forceps to remove the endothelium. Tissues were then mounted between two stainless steel hooks and placed in 10 ml organ chambers constantly exposed to oxygenated modified Krebs' solution (95% O2 /5% CO2; pH 7.4; 37° C.). Tissues were equilibrated for 1 hour under an initial optimal passive force of 4 g determined previously from length-tension experiments. The buffer was replaced every 15 minutes during equilibration. Isometric force was measured with Statham UC3 force transducers connected to a Beckman dynograph (R611). After 1 hr equilibration, tissues were depolarized twice with 50 mM KCl for 30 min with a 20 min washing period between. The integrity of the endothelium was examined with acetylcholine (1 μM), bradykinin (100 nM), or the ionophore A23187 (1 μM). Rings that relaxed to these agents were not used in this study.
(§2) Cumulative concentration-response curves to 5-HT were generated in tissues incubated with either vehicle or antagonist for 1 hr. In some experiments contraction was measured in tissues under basal tone upon the cumulative addition of 5-HT. These tissues were treated with prazosin (1 μM) to block any potential a adrenoceptor activation and in the absence or presence of antagonist.
(§3) All results are expressed as mean ±S.E. where "n" represents the number of rings examined. No more than two rings were used from each animal for each compound studied. The relaxation data is expressed as percent relaxation of the contraction produced by PGF2α. The contraction data is expressed as percent of a maximal KCl (50 mM) contraction. The EC50 was the concentration of the agonist producing half-maximal response and was determined by least squares linear regression analysis of the linear portion or the agonist concentration-response curve and expressed as -log C50 (pEC50)
Apparent antagonist dissociation constants (KB) were determined for each antagonist according to the following equation: [formula] where (B) is the concentration of the antagonist and dose ratio is the EC50 of the agonist in the presence of the antagonist divided by the EC50 of the agonist in vehicle treated tissues. […] Significant differences between vehicle and antagonist treated tissues were determined with Student's t-test. The alpha value was set a priori at 0.05.
The data was also analyzed in accord with the procedure of Arunlakshana and Schild (1959). The dose ratio was determined at various concentrations of antagonist compound II or compound IV. If blockade is competitive under equilibrium conditions a plot of the logarithm (dose ratio--1) against the negative logarithm of the molar concentration of antagonist should yield a straight line whose slope is not different from unity and whose intercept on the abscissa is the pA2, which is generally considered to be equivalent to -log KB.

[2] = Bioavailability after oral administration in rats; assay type: in vivo, rat
[3] = test system: contractile 5-HT receptor in the canine coronary artery; assay: Contraction of endothelium-denuded canine coronary artery under basal tone; assay type: cell-based
Method: as §1
as §2, with “Tissues prepared as described in Example 1 were precontracted with PGF2α (10 μM) which produced a tonic contraction that remained at or above 92.8±2.1% (n=14) of the original maximum force throughout the experiment. Cumulative” for “Cumulative”
as §3

human 5-HT7 receptor [4] = target: T2, human 5-HT7 receptor (Homo sapiens, UniProt P34969); settings: cited from earlier work; for pharmacological profile (rank order of affinity): human 5-HT7, [3H]5-HT competition
rat 5-HT7 receptor = settings: cited from earlier work; for pharmacological profile (rank order of affinity): rat 5-HT7, [125I]LSD and [3H]5-HT
human 5-HT7 receptor [5] = target: T2, human 5-HT7 receptor; assay: Receptor binding at the human 5-HT7 receptor
Excerpt: The general chemical structure for three particularly useful compounds of the invention (compounds III-V) are shown below: [drawing 3]
The KD and --logKB value for compound II, a known 5-HT7 antagonist, and two compounds employed by the present invention, compound III and IV, are shown in Table 1.

5-HT7 receptor = settings: expressed in mammalian cells; cited from earlier work
[6] = test system: contractile 5-HT receptor in the canine coronary artery; settings: agonist alone, vessels under basal tone, as previously reported (Cushing et al.); cited from earlier work
[7] = compared with ester compounds II and V

T2 sequence (P34969 1-445 isoform P34969-2): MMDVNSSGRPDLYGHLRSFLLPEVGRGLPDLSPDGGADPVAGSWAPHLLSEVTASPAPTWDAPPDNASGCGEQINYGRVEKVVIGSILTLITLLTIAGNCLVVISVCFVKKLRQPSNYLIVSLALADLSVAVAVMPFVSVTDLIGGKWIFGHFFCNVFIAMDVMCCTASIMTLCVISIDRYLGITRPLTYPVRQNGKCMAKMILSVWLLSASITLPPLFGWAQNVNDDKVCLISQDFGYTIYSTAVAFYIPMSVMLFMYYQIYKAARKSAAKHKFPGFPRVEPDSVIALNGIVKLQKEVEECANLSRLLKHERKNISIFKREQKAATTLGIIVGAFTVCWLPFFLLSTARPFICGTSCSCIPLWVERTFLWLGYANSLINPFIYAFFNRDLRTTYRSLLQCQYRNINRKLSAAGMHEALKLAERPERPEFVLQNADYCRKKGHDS
T1 sequence (A0A8I3S709 1-435): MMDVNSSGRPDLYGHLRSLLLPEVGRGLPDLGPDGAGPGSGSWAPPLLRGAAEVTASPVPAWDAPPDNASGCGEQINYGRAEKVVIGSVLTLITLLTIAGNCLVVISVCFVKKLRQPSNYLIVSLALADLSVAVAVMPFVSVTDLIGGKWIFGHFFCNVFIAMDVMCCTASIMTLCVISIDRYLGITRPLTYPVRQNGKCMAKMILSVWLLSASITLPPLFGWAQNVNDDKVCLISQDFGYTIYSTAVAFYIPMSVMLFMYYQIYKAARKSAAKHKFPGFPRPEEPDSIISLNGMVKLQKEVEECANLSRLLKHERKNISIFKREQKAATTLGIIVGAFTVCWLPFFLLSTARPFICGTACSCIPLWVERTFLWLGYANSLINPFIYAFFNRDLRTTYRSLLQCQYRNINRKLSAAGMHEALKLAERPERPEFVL

Q: Which results are given for `COC1CCC(OC(=O)C2CC3c4cccc5c4c(cn5C(C)C)CC3N(C)C2)CC1` (stereo not shown) [Compound V]?
A: Kb [1]: 398 nM; pEC50 values between vehicle and compound-treated tissues [1]: significantly different; blockade of 5-HT-induced relaxation ([1]; compound II 0.3-10 μM): blocked 5-HT-induced relaxation in an apparently competitive manner; bioavailability ([2]; compared with compound II): higher bioavailability than compound II

Q: For `NCCc1c[nH]c2ccc(C(N)=O)cc12` [Compound 5-CT, 5-carboxamidotryptamine], which “relaxant activity in canine coronary artery” value [1] is on record?
A: potent relaxant agonist

Q: And the “affinity of canine coronary artery relaxant receptor for 5CT versus serotonin” value [1]?
A: highest affinity for 5-HT7 receptors

Q: And the “affinity of canine coronary artery relaxant receptor for 5CT versus serotonin” value ([1]; listed as 5CT)?
A: greater affinity for 5CT than for the endogenous agonist serotonin

Q: And the contraction by agonist ([3]; agonist alone, under basal tone or precontracted)?
A: did not significantly contract coronary arteries

Q: And the “contraction by agonist in the presence of compound IV” value ([3]; compound IV 1 μM, basal tone)?
A: concentration-dependently contracted canine coronary artery

Q: What about the “pharmacological profile (rank order of affinity)” value (“pharmacological profile” below) (human 5-HT7 receptor [4]) of the same compound?
A: 5CT>5 MeOT≥5HT>8-OH DPAT

Q: And the “affinity of 5CT over serotonin” value (human 5-HT7 receptor [4]; human 5-HT7)?
A: greater affinity of 5CT over serotonin

Q: And the “pharmacological profile” value (rat 5-HT7 receptor)?
A: 5CT>5MeOT≥5HT>8-OH-DPAT

Q: What about the “binding affinity of 5CT over serotonin” value (rat 5-HT7 receptor; rat 5-HT7) of the same compound?
A: higher binding affinity of 5CT over serotonin

Q: For `CNS(=O)(=O)Cc1ccc2[nH]cc(CCN(C)C)c2c1` [sumatriptan], which “relaxant activity in canine coronary artery” value [1] is on record?
A: lacking relaxant activity

Q: Which results are given for `CC(C)n1cc2c3c(cccc31)C1CC(C(=O)NC3CCCC3O)CN(C)C1C2` (stereo not shown) [Compound IV]?
A: binding affinity to the human 5-HT7 receptor (in words) (human 5-HT7 receptor [5]): high binding affinity; Kb [1]: 5.01 nM; slope of the Schild regression [1]: 0.98; slope [1]: 0.98; blockade of 5-HT-induced relaxation ([1]; compound II 0.3-10 μM): blocked 5-HT-induced relaxation in endothelium-denuded canine coronary artery rings in a competitive manner; effect on contractile response produced by 5-HT and 5-MeOT ([3]; 1 μM, basal tone): not affecting the contractile response; effect on relaxant phase of 5-HT and 5-MeOT response ([3]; 1 μM, basal tone): significantly attenuated the relaxant phase; effect on sumatriptan-induced contraction ([3]; 1 μM, basal tone, FIG. 7): did not significantly affect sumatriptan-induced contraction; bioavailability [2, 7]: greater bioavailability than the ester compounds II and V

Q: Which Kb [1] does the source give for `CC(O)C(C)OC(=O)C1CC2c3cccc4c3c(cn4C(C)C)CC2N(C)C1` (stereo not shown) [Compound II] here?
A: 316 nM

Q: What about the “Schild slope versus unity” value ([1]; FIG. 1 lower panel) of the same compound?
A: not significantly different from unity

Q: What about the “slope of the Schild regression” value [1] of the same compound?
A: 0.92

Q: And the slope [1]?
A: 0.92

Q: What about the “maximum relaxant response to 5-HT” value ([1]; compound II 0.3-10 μM) of the same compound?
A: did not alter the maximum relaxant response

Q: And the “blockade of 5-HT-induced relaxation” value ([1]; compound II 0.3-10 μM)?
A: shifted the concentration-response curve to 5-HT significantly to the right

Q: With `CN1CCN(C2=Nc3ccccc3Oc3ccc(Cl)cc32)CC1` [loxapine] as the compound, how does the “affinity for the 5-HT7 receptor” value (5-HT7 receptor) read?
A: high affinity

Q: Which “affinity for the 5-HT7 receptor” value (5-HT7 receptor) does the source give for `CN1CCN(C2=Nc3cc(Cl)ccc3Nc3ccccc32)CC1` [clozapine] here?
A: high affinity

Q: For `CCCN(CCC)C1CCc2cccc(O)c2C1` (stereo not shown) [8-OH DPAT, 8-hydroxy-2-(di-n-propyl-amino)-tetralin], which “pharmacological profile” value (human 5-HT7 receptor [4]) is on record?
A: 5CT>5 MeOT≥5HT>8-OH DPAT

Q: And the “pharmacological profile” value (rat 5-HT7 receptor)?
A: 5CT>5MeOT≥5HT>8-OH-DPAT

Q: What does the source list for `CC(C)n1cc2c3c(cccc31)C1CC(C(=O)NC3CCCCC3)CN(C)C1C2` (stereo not shown) [Compound III]?
A: binding affinity to the human 5-HT7 receptor (in words) (human 5-HT7 receptor [5]): high binding affinity; Kb [1]: 200 nM; pEC50 values between vehicle and compound-treated tissues [1]: significantly different; blockade of 5-HT-induced relaxation ([1]; compound II 0.3-10 μM): blocked 5-HT-induced relaxation in endothelium-denuded canine coronary artery rings in a competitive manner; bioavailability [2, 7]: greater bioavailability than the ester compounds II and V

Q: With `NCCc1c[nH]c2ccc(O)cc12` [Compound 5-HT, 5-hydroxytryptamine] as the compound, how does the “contractile response of agonist” value [6] read?
A: produced a biphasic contractile response

Q: What about the “pharmacological profile” value (human 5-HT7 receptor [4]) of the same compound?
A: 5CT>5 MeOT≥5HT>8-OH DPAT

Q: And the “pharmacological profile” value (rat 5-HT7 receptor)?
A: 5CT>5MeOT≥5HT>8-OH-DPAT

Q: Which “affinity for the 5-HT7 receptor” value (5-HT7 receptor) does the source give for `CN(C)CCC=C1c2ccccc2CCc2ccccc21` [amitriptyline] here?
A: high affinity

Q: Which “contractile response of agonist” value [6] does the source give for `COc1ccc2[nH]cc(CCN)c2c1` [Compound 5-MeOT, 5-methoxytryptamine] here?
A: produced a biphasic contractile response

Q: And the “pharmacological profile” value (human 5-HT7 receptor [4])?
A: 5CT>5 MeOT≥5HT>8-OH DPAT

Q: And the “pharmacological profile” value (rat 5-HT7 receptor)?
A: 5CT>5MeOT≥5HT>8-OH-DPAT

Q: With `CCCCC[C@H](O)/C=C/[C@@H]1[C@@H](C/C=C\CCCC(=O)O)[C@@H](O)C[C@H]1O` [PGF2α] as the compound, how does the “contraction retained throughout the experiment” value ([1]; PGF2α 10 μM, of the original maximum force, n=14) read?
A: ≥ 92.8±2.1%
